Biological target: T1, NKCC1 (Homo sapiens, UniProt P55011)
T1 construct: expressed in transfected cells; host or cells: HEK-293
T1 sequence (P55011 1-1212): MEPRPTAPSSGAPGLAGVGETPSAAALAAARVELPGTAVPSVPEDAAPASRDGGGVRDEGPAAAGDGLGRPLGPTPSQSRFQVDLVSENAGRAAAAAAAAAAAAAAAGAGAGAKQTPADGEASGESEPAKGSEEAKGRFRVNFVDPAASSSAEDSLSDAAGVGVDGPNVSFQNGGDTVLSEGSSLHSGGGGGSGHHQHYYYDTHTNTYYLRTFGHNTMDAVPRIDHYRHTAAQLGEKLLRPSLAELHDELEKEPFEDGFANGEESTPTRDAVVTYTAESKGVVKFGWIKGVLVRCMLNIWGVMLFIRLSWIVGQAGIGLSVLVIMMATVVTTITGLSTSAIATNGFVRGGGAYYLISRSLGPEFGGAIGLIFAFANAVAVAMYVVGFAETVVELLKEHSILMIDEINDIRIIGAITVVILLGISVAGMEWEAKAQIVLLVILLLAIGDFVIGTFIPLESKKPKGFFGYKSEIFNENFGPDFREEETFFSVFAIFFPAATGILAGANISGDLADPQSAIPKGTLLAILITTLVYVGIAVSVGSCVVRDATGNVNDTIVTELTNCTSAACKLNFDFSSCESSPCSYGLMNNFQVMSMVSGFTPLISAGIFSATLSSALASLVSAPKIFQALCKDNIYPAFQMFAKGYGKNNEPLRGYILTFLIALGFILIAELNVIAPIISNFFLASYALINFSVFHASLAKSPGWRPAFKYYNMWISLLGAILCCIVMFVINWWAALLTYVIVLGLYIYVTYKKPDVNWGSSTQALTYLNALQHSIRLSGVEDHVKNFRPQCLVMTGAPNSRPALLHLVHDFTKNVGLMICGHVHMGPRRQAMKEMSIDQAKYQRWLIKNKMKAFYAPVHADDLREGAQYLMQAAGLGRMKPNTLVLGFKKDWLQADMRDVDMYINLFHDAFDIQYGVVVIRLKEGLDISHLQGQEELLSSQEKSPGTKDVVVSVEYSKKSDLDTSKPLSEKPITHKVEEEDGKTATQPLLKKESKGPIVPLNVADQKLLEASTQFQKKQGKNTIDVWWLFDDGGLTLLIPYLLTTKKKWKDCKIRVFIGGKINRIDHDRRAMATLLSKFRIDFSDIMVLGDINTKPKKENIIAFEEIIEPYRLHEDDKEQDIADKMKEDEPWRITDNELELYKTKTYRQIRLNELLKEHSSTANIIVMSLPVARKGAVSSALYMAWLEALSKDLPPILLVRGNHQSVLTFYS
Assay: TI+ flux assay, HEK-293 cells expressing NKCC1
Type: cell-based
Conditions: read-out: concentration at which effects on NKCC1 were seen (EC50 chart FIG. 1G)
Method: FLIPR TI Flux assay. HEK-293 cells were washed with HBSS, and then incubated with loading buffer containing TI sensitive fluorescent dye (https://www.moleculardevices.com), 20 μM bumetanide 20 μM ouabain and 2.5 mM probenecid for 1 h at room temperature (RT) under control conditions or with drugs in the dark using a FlexStation 3 microplate reader (Molecular Devices) and imaged […] for 30 min. Stimulus buffer was added containing 5 mM K^+/0.5 mM Tl^+ and cells were imaged every 1.5 over a 190 second time course The initial rate Tl^+ uptake (Relative Fluorescence Units (RFU) per second) was determined following addition of the stimulus buffer as outlined previously (Conway et al., 2017, supra) (Lee et al., 2022, supra).
Several studies have shown that the activity and plasma membrane accumulation of KCC2 is potentiated via phosphorylation of S940, a process mediated by the activity of protein kinase C and protein phosphatase 1 (Lee et al., 2011, supra; Lee et al., J Biol Chem 282, 29777-29784 (2007); Moore et al., Proc. Natl. Acad. Sci. U.S.A. 115, 10166-10171 (2018); Moore et al., Trends Neurosci. 40, 555-571 (2017); Silayeva et al., Proc. Natl. Acad. Sci. U.S.A. 112, 3523-3528 (2015)). […] Compared to KCC2, effects on KCC3, KCC4, and NKCC1 were only seen at concentrations more than 35-fold that of KCC2 (>100 μM) (FIG. 1G).

SMILES: C[C@@H]1CN(c2nc3c(c(Nc4ccc(C5CCCCC5)cc4)n2)COC3)CCO1 [Compound A, (R)—N-(4-cyclohexylphenyl)-2-(2-methylmorpholino)-5,7-dihydrofuro[3,4-d]pyrimidin-4-amine]
- EC50: > 100 µM

Reference: patent publication US20250281498A1, “FUSED AMINO PYRIMIDINE COMPOUNDS FOR TREATMENT OF SYNUCLEINOPATHIES AND TDP-43 PROTEINOPATHIES” (Ovid Therapeutics Inc., priority 2024, published 2025)
